# Source: patent US20260041679A1, “METHOD OF TREATING HYPERTENSION WITH THE ALDOSTERONE SYNTHASE INHIBITOR BAXDROSTAT” (CINCOR PHARMA, INC., priority 2022, published 2026)
# Columns and labels:
# [1] = Study 121: adverse events, safety population
# Source text: In this study, adverse events of special interest (AESIs) were events of hypotension, low sodium levels or elevated potassium levels that required clinical intervention.
# [2] = molecular target: T1, aldosterone synthase (Homo sapiens, UniProt P19099); experiment: Study 121: pharmacodynamics, serum and 24-hour urine aldosterone, plasma renin activity, serum cortisol; assay type: in vivo
# T1 construct: Pharmacodynamic measurements included plasma aldosterone, cortisol, and electrolytes; endogenous in cells; host or cells: human subjects in vivo (healthy volunteers; resistant hypertension patients)
# T1 sequence (P19099 25-503): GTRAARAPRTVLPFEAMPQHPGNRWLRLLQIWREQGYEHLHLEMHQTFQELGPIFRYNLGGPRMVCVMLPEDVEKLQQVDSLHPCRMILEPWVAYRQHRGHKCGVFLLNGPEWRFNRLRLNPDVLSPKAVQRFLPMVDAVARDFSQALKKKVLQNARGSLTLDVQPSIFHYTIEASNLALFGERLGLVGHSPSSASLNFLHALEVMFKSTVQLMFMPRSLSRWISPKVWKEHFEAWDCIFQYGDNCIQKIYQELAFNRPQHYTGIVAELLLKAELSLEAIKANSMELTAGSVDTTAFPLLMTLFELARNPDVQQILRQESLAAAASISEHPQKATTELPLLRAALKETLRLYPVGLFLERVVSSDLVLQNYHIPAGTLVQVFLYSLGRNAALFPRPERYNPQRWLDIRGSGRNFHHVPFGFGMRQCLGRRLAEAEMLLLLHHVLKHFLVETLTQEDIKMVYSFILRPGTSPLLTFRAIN
# Source text: Blood and urine samples were collected for determination of the pharmacodynamic parameters related to baxdrostat mechanism of aldosterone suppression. Serum concentrations of aldosterone, aldosterone excreted in 24-hour urine collections, plasma renin activity (PRA) and serum cortisol are summarized by dose and by study day as shown in FIGS. 3A-3D. […] These hormonal data provide strong biochemical evidence to support the mechanism by which baxdrostat's inhibition of aldosterone synthesis produces a significant impact on blood pressure levels without lowering serum cortisol levels.
# [3] = molecular target: T1, aldosterone synthase; experiment: Multiple ascending dose study, pharmacodynamics: plasma aldosterone, cortisol, electrolytes (Example 2); assay type: in vivo
# Description: This randomized, double-blind, placebo-controlled phase 1 study evaluated the safety, pharmacokinetics, and pharmacodynamics of multiple ascending doses of baxdrostat in healthy volunteers. Fifty-six subjects were randomized to receive oral baxdrostat (0.5, 1.5, 2.5, or 5.0 mg) or placebo once daily for ten days and were placed on either a low salt or normal salt diet for the duration of the study. In particular, subjects were randomized into 5 cohorts to receive baxdrostat or placebo once daily for 10 days. Cohorts 1 and 2 were placed on a low salt diet to stimulate aldosterone production and were administered 2.5 or 5.0 mg oral baxdrostat, respectively. Cohorts 1 and 2 also underwent an adrenocorticotropic hormone (ACTH) challenge to increase aldosterone and cortisol levels to evaluate the specificity of baxdrostat for targeting aldosterone synthase. Cohorts 3, 4, and 5 were placed on a normal salt diet and were administered 1.5, 2.5, or 0.5 mg oral baxdrostat, respectively. Blood samples were collected prior to and after dosing on days 1 and 10 for measurement of plasma baxdrostat concentrations to characterize single-dose and steady-state pharmacokinetics. Pharmacodynamic measurements included plasma aldosterone, cortisol, and electrolytes. Safety assessments included physical examination, electrocardiograms, orthostatic vital signs, and clinical laboratory evaluations.
# [4] = Absorption, metabolism and excretion of [14C]-baxdrostat (Example 7); assay type: in vivo, human
# Description: Eight male subjects each received a single oral 10 mg (containing approximately 100 uCi) dose of baxdrostat. Blood, urine and fecal samples were collected to determine the metabolic and excretion pathways of baxdrostat. Preliminary findings indicate that the mean excretion of radioactivity was 69.4% and 15.3%, of the dose in the urine and feces, respectively. Unchanged baxdrostat was the major component in urine and feces, constituting 16.8% and 6.1% of the dose, respectively.
# [5] = Single ascending dose study, pharmacokinetics (Example 1); assay type: in vivo
# Description: Eighty-eight healthy male volunteers completed the first-in-human study of baxdrostat. In part 1 of the trial, subjects received a single oral dose of baxdrostat ranging from 1 to 360 mg in order to evaluate safety, tolerability, PK, and pharmacodynamics (PD). Part 2 evaluated the PK of a single 3 mg intravenous dose of baxdrostat.
# [6] = single oral 10 mg [14C] dose, preliminary findings
structure (smiles),measurement,setting,value
"CCC(=O)N[C@@H]1CCCc2c(-c3ccc4c(c3)CCC(=O)N4C)cncc21 [baxdrostat, (R)—N-(4-(1-methyl-2-oxo-1,2,3,4-tetrahydroquinolin-6-yl)-5,6,7,8-tetrahydroisoquinolin-8-yl) propionamide]","TESAE, Number of Subjects (Number of Events)",[1]; 0.5 mg,0 (0) subjects (events)
same,TESAE: General disorders and administration site conditions,[1]; 0.5 mg,0 subjects (events)
same,TESAE: Infections and infestations,[1]; 0.5 mg,0 subjects (events)
same,TESAE: Metabolism and nutrition disorders,[1]; 0.5 mg,0 subjects (events)
same,TESAE: Musculoskeletal and connective tissue disorders,[1]; 0.5 mg,0 subjects (events)
same,TESAE: Nervous system disorders,[1]; 0.5 mg,0 subjects (events)
same,TESAE: Renal and urinary disorders,[1]; 0.5 mg,0 subjects (events)
same,"TESAE: Respiratory, thoracic and mediastinal disorders",[1]; 0.5 mg,0 subjects (events)
same,"adverse events of special interest (AESIs), patients per arm",[1]; 0.5 mg,1
same,percentage of patients who experienced TEAEs,[1]; 0.5 mg,34.8%
same,"TESAE, Number of Subjects (Number of Events)",[1]; 1 mg,2 (3) subjects (events)
same,TESAE: Infections and infestations,[1]; 1 mg,1 (1) subjects (events)
same,TESAE: Intervertebral disc degeneration,[1]; 1 mg,1 (1) subjects (events)
same,TESAE: Musculoskeletal and connective tissue disorders,[1]; 1 mg,1 (1) subjects (events)
same,TESAE: Nephrolithiasis,[1]; 1 mg,1 (1) subjects (events)
same,TESAE: Pyelonephritis,[1]; 1 mg,1 (1) subjects (events)
same,TESAE: Renal and urinary disorders,[1]; 1 mg,1 (1) subjects (events)
same,percentage of patients who experienced TEAEs,[1]; 1 mg,52.2%
same,"adverse events of special interest (AESIs), patients per arm",[1]; 1 mg arm,5
same,"TESAE, Number of Subjects (Number of Events)",[1]; 2 mg,6 (12) subjects (events)
same,TESAE: Acute kidney injury,[1]; 2 mg,1 (1) subjects (events)
same,TESAE: Acute respiratory failure,[1]; 2 mg,1 (1) subjects (events)
same,TESAE: Arthralgia,[1]; 2 mg,1 (1) subjects (events)
same,TESAE: Cellulitis,[1]; 2 mg,1 (1) subjects (events)
same,TESAE: Dehydration,[1]; 2 mg,1 (1) subjects (events)
same,TESAE: Dizziness,[1]; 2 mg,1 (1) subjects (events)
same,TESAE: Hyperglycaemia,[1]; 2 mg,1 (1) subjects (events)
same,TESAE: Hyperkalemia,[1]; 2 mg,1 (1) subjects (events)
same,TESAE: Hyponatraemia,[1]; 2 mg,1 (1) subjects (events)
same,TESAE: Infections and infestations,[1]; 2 mg,2 (2) subjects (events)
same,TESAE: Metabolism and nutrition disorders,[1]; 2 mg,1 (4) subjects (events)
same,TESAE: Musculoskeletal and connective tissue disorders,[1]; 2 mg,1 (1) subjects (events)
same,TESAE: Nervous system disorders,[1]; 2 mg,2 (2) subjects (events)
same,TESAE: Renal and urinary disorders,[1]; 2 mg,1 (1) subjects (events)
same,TESAE: Respiratory failure,[1]; 2 mg,1 (1) subjects (events)
same,"TESAE: Respiratory, thoracic and mediastinal disorders",[1]; 2 mg,2 (2) subjects (events)
same,TESAE: Syncope,[1]; 2 mg,1 (1) subjects (events)
same,TESAE: Urinary tract infection,[1]; 2 mg,1 (1) subjects (events)
same,percentage of patients who experienced TEAEs,[1]; 2 mg,47.8%
same,"adverse events of special interest (AESIs), patients per arm",[1]; 2 mg arm,2
same,adrenal insufficiency,[1]; Study 121,no reported cases of adrenal insufficiency
same,deaths and relatedness of SAEs,[1]; Study 121,no deaths in the study and all SAEs were assessed by the investigators to be unrelated to baxdrostat
same,tolerability,[1]; once daily for 12 weeks,well tolerated
same,urinary aldosterone excretion,[2]; 24-hour urine,significantly reduced urinary aldosterone excretion
same,"suppression of aldosterone and augmentation of renin activity, male vs female patients",[2]; in vivo,comparable between male and female patients
same,plasma renin activity (PRA),[2]; rHTN patients,increased PRA several-fold
same,total serum cortisol,[2]; rHTN patients,no reduction in total serum cortisol
same,"plasma aldosterone, reduction",[3]; Day 10,51-73%
same,plasma aldosterone,"[3]; doses ≥1.5 mg, regardless of diet",dose-dependent reduction of plasma aldosterone
same,plasma cortisol,"[3]; once daily, 10 days",no meaningful impact on plasma cortisol
same,plasma sodium levels,"[3]; once daily, 10 days",mild dose-dependent decreases in plasma sodium levels
same,potassium levels,"[3]; once daily, 10 days",increases in potassium levels
same,mean blood:plasma concentration ratios,[4]; radioactivity,low association of radioactivity with blood cells
same,share of total systemic exposure by AUC0-inf in plasma,[4]; single oral 10 mg [14C] dose,71%
same,unchanged baxdrostat in feces,[4]; single oral 10 mg [14C] dose,6.1 % of the dose
same,unchanged baxdrostat in urine,[4]; single oral 10 mg [14C] dose,16.8 % of the dose
same,mean excretion of radioactivity in feces,[4]; [6],15.3 % of the dose
same,mean excretion of radioactivity in urine,[4]; [6],69.4 % of the dose
same,half-life,"[5]; human, plasma, oral, single dose, healthy male volunteers",29 h
same,plasma levels of baxdrostat vs dose,[5]; single oral dose 1 to 360 mg,increased in a dose-proportional manner
